Source: patent US6852485B1, “Method for identifying a compound for the treatment of microorganism infections by inhibiting energy storage and utilization in pathogens” (California State University Fullerton Foundation, priority 2002, dated 2005)

Target: T1, Rhodobacter sphaeroides (Rb.s.) ADPG Ppase (Cereibacter sphaeroides, UniProt Q9RNH7)
T1 construct: made in house
Test: ADPGlc synthesis assay (14-C Glc-1-P converted to ADPGlucose) with purified recombinant Rb.s. ADPG Ppase, with and without activator F6P
Assay type: biochemical
Details: for inhibition of Rb.s. ADPG Ppase: 500 μM analog, 0.25 mM ATP, 0.5 mM Glc-1-P, pH 7
Source text: One particular in vitro method for assessing the activity of an inhibitor to purified ADPGlc PPase is the following: • Assaying for ADPGlc synthesis activity involves measuring the amount of 14-C labeled Glc-1-P converted to ADPGlucose (Preiss, J., Shen, L., Greenberg, E., and Gentner, N. (1966) Biochemistry 5, 1833-1845). Briefly, unreacted Glc-1-P is separated from product by the following steps: 1)digestion with alkaline phosphatase (thus removing the negatively charged phosphate); 2) spotting an aliquot of the reaction mixture on to positively charged DE-81 filters (Whatman); and 3) washing the filters with water (thus removing the now neutral C-14 glucose).
To assess the effect of a putative inhibitor, enzyme assays are performed at a subsaturating concentration of substrate (depending on the enzyme, ATP=0.2-1 mM, Glc-1-P=0.5 mM) under standard conditions in the absence and presence of the major activator for each enzyme (1-5 mM depending on enzyme). In this way, the effect of the inhibitors can be evaluated under the range of the expected in vivo conditions. Initial screening of a putative inhibitor typically includes testing at two concentrations (˜25 μM and 1 mM)±major activator with appropriate controls and blanks for a total of 9 assays/inhibitor/enzyme (2 control assays—appropriate enzyme concentrations in the absence of inhibitor; 4 experimental assays; 1 blank in the absence of inhibitors; 2 blanks in the presence of inhibitor (no activator required).
The APDGIc Ppase from Rhodobacter sphaeroides has been used as a model enzyme for initial testing of inhibitors as it has been cloned, sequenced, and expressed in the inventor's laboratory (Meyer et al (1999) Arch. Biochem. Biophys. 372, 179-188; Igarashi, R. Y. and Meyer, C. R. (2000) Arch. Biochem. Biophys. 376, 47-58) and the purified recombinant enzyme is readily available. Further, this particular enzyme has the most complex regulation (having partial overlap with nearly every type of ADPG Ppase) and has sufficient homology (ranging from ˜40-70% similarity) to the enzyme primary sequence from the mentioned pathogenic bacteria.
PREMIX: A: 100 mM HEPES (pH 7), 0.5 mg/mL BSA, 0.5 mM Glc-1-P, 0.25 mM ATP subsaturating (near S0.5 value), 5 mM MgCl2, (0.2 U Pyrophosphatase))
PREMIX B: A+1 mM F6P (170 μL premix will allow 20 μL for analog vol., 10 μL of E)
II. ANALOG CONC.=5, 50, 500 μM (STOCK CONC.=5 mM) in 50 mM HEPES, pH 7, note that 20 μL of 5 mM in 200 μL assay will yield 500 μM final concentration to obtain 5 mM aliquots: • ANALOG I: add 625 μL of HEPES buffer, mix thoroughly • ANALOG II: add 500 μL of HEPES buffer, mix thoroughly
1:10 DILUTION ALIQUOTS OF 5 mM STOCKS are prepared in order to generate stock solutions that will give 50 and 5 μM with the addition of 20 μL. 100 μL aliquots are stored at −20 C
RBS ADPG PPASE WT ENZYME CONC.=17 mg/mL (use 1:8000 dilution in Dilution Buffer)
THE FOLLOWING ASSAY SET OF 11 ARE UTILIZED FOR EACH ANALOG • 1-BLANK (Premix A) • 2-BLANK+50 μM ANALOG (A) • 3-BLANK+500 μM ANALOG (A) • 4-E CON (A) • 5-E CON+F6P (B) • 6-E+5 μM (A) • 7-E+5 μM((B) • 8-E+50 μM(A) • 9-E+50 μM(B) • 10-E+500 μM (A) • 11-E+500 μM (B)
Purified Rb.s ADPG Ppase was assayed under standard conditions (0.25 mM ATP [˜S0.5 value], 0.5 mM Glc-1-P, 5 mM Mg, 100 mM HEPES, pH7) in the presence and absence of the activator F6P (1 mM) at 3 concentrations of the analogs: 5, 50, and 500 μM. Analog stock solutions were made in 50 mM HEPES, pH 7). These concentrations should be regarded as estimates as there could have been some breakdown of the compounds during 2 years of storage at −20° C. The analogs had no effect on the background cpm of the assays.

[1] = E + 5 uM analog, Premix A (no F6P)
[2] = E + 5 uM analog, Premix B (+1 mM F6P)
[3] = E + 50 uM analog, Premix A (no F6P)
[4] = E + 50 uM analog, Premix B (+1 mM F6P)
[5] = E + 500 uM analog, Premix A (no F6P)
[6] = E + 500 uM analog, Premix B (+1 mM F6P)

T1 sequence (Q9RNH7 whole entry): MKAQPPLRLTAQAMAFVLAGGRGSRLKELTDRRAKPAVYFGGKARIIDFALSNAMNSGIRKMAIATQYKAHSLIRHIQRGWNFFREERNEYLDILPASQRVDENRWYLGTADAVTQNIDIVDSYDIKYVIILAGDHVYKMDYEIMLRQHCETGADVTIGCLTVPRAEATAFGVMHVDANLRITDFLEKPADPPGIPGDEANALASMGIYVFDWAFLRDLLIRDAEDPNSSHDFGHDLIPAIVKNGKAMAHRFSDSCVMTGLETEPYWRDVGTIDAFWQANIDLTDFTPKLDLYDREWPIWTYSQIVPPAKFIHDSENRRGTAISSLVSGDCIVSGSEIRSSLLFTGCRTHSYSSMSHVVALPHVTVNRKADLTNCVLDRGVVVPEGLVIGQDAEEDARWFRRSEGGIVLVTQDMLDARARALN

| Compound | inhibition of Rb.s. ADPG Ppase (absence of the activator F6P) | inhibition of Rb.s. ADPG Ppase (presence of F6P (1 mM)) | Units/mg (enzyme activity) [1] [Units/mg] | Units/mg (enzyme activity) [2] [Units/mg] | Units/mg (enzyme activity) [3] [Units/mg] | Units/mg (enzyme activity) [4] [Units/mg] | Units/mg (enzyme activity) [5] [Units/mg] | Units/mg (enzyme activity) [6] [Units/mg] |
| --- | --- | --- | --- | --- | --- | --- | --- | --- |
| BP(=O)(OC[C@H]1O[C@@H](n2cnc3c(N)ncnc32)[C@H](O)[C@@H]1O)OP(=O)(O)O[C@H]1O[C@H](CO)[C@@H](O)[C@H](O)[C@H]1O (single isomer, unassigned) [Analog II, adenosine-α-P-boranodiphosphoglucose] | about 70% | about 70% | 5.28 | 93.86 | 4.38 | 76.73 | 1.77 | 33.51 |
| BP(=O)(OC[C@H]1O[C@@H](n2cnc3c(N)ncnc32)[C@H](O)[C@@H]1O)OP(=O)(O)O[C@H]1O[C@H](CO)[C@@H](O)[C@H](O)[C@H]1O (single isomer, unassigned) [Analog I, adenosine-α-P-boranodiphosphoglucose] | about 75% | ~50% | 4.02 | 91.75 | 3.55 | 87.40 | 1.33 | 53.37 |
